This experiment has as its system BDF1 mice, B16 melanoma ip, median survival T/C. As to the kind of experiment: NCI In Vivo Anticancer Drug Screen. Data for tumor model B16 Melanoma (intraperitoneal) in B6D2F1 (BDF1) mice. As to conditions: endpoint: median survival time, higher = longer survival. As for the experimental part:
The antitumor activity of compounds was measured in mice bearing transplantable tumors. Survival or tumor size were measured and the results are expressed as the measurement made in the treated group (T) divided by the measurement made in the vehicle treated control group (C). The tumor model used in this assay is B16 Melanoma (intraperitoneal) in B6D2F1 (BDF1) mice

The mark [1] stands for this setting: dose: 100.0 mg/kg/injection, schedule: Q01DX009 (ip), vehicle: Klucel (hydroxypropylcellulose) (HPC).
Setting [2] is: dose: 200.0 mg/kg/injection, schedule: Q01DX009 (ip), vehicle: Klucel (hydroxypropylcellulose) (HPC).
The mark [3] stands for this setting: dose: 25.0 mg/kg/injection, schedule: Q01DX009 (ip), vehicle: saline with Tween-80.
[4] abbreviates: dose: 50.0 mg/kg/injection, schedule: Q01DX009 (ip), vehicle: saline with Tween-80.
Where [5] appears, read: dose: 6.25 mg/kg/injection, schedule: Q01DX009 (ip), vehicle: saline.
Setting [6] is: dose: 25.0 mg/kg/injection, schedule: Q01DX009 (ip), vehicle: Klucel (hydroxypropylcellulose) (HPC).
Setting [7] is: dose: 50.0 mg/kg/injection, schedule: Q01DX009 (ip), vehicle: Klucel (hydroxypropylcellulose) (HPC).

We go through 18 compounds from PubChem BioAssay AID192 (DTP/NCI, 2004).

Molecules are shown by their SMILES. Several values for one entry are separate records, joined by “and”; a condition that tells them apart may be missing. Equal entries are not always repeated. Inconclusive results and toxic doses are left out.

As for `Cc1cccc(NC(=O)c2ccc(Cl)cc2)c1C`, the T/C by setting is: under setting [1], 93 % of control; under setting [2], 89 % of control; (dose: 400.0 mg/kg/injection, schedule: Q01DX009 (ip), vehicle: Klucel (hydroxypropylcellulose) (HPC)) 89 % of control.
`C[n+]1c(-c2cccc(OCCCCCCCOc3cccc(-c4c5cc(N)ccc5c5ccc(N)cc5[n+]4C)c3)c2)c2cc(N)ccc2c2ccc(N)cc21`: the T/C is, setting by setting: (dose: 0.02 mg/kg/injection, schedule: Q01DX009 (ip), vehicle: water) 95 % of control; (dose: 0.04 mg/kg/injection, schedule: Q01DX009 (ip), vehicle: water) 123 % of control.
In the case of `CCCCN(C)/N=N/c1nc[nH]c1C(N)=O`, the T/C was 111 % of control (dose: 10.0 mg/kg/injection, schedule: Q01DX009 (ip), vehicle: carboxymethylcellulose (CMC)); 120 % of control (dose: 20.0 mg/kg/injection, schedule: Q01DX009 (ip), vehicle: carboxymethylcellulose (CMC)); 109 % of control under setting [3]; 112 % of control under setting [4].
`COc1cc2ccncc2cc1O`: the T/C was 104 % of control (dose: 6.25 mg/kg/injection, schedule: Q01DX009 (ip), vehicle: water); 95 % of control (dose: 12.5 mg/kg/injection, schedule: Q01DX009 (ip), vehicle: water); 109 % of control (dose: 25.0 mg/kg/injection, schedule: Q01DX009 (ip), vehicle: water); 98 % of control (dose: 50.0 mg/kg/injection, schedule: Q01DX009 (ip), vehicle: water).
`O=C1NC2(CCCCC2)C(=O)N1CCN(CCCl)CCCl`: the T/C is, setting by setting: (dose: 0.75 mg/kg/injection, schedule: Q01DX009 (ip), vehicle: saline) 105 % of control and 107 % of control; (dose: 0.78 mg/kg/injection, schedule: Q01DX009 (ip), vehicle: saline) 95 % of control and 109 % of control and 263 % of control; (dose: 3.0 mg/kg/injection, schedule: Q01DX009 (ip), vehicle: saline) 107 % of control; (dose: 6.0 mg/kg/injection, schedule: Q01DX009 (ip), vehicle: saline with Tween-80) 168 % of control and 191 % of control; under setting [5], 152 % of control and 176 % of control.
`CCC1(O)CC(OC2CC(N(C)C)C(OC3CC(O)C(OC4CCC(=O)C(C)O4)C(C)O3)C(C)O2)c2c(cc3c(c2O)C(=O)c2c(O)ccc(O)c2C3=O)C1C(=O)OC` (stereo not given): the T/C (dose: 0.23 mg/kg/injection, schedule: Q01DX009 (ip), vehicle: saline with Tween-80) was 98 % of control; the T/C (dose: 3.6 mg/kg/injection, schedule: Q01DX001 (ip), vehicle: water) is 101 % of control and 109 % of control; the T/C (dose: 6.0 mg/kg/injection, schedule: Q01DX001 (ip), vehicle: water) is 106 % of control and 112 % of control; the T/C (dose: 10.0 mg/kg/injection, schedule: Q01DX001 (ip), vehicle: water) is 111 % of control.
Consider `CCC(CC)c1ccccn1`, for which the T/C is 101 % of control (dose: 100.0 mg/kg/injection, schedule: Q01DX009 (ip), vehicle: carboxymethylcellulose (CMC)) and 95 % of control (dose: 200.0 mg/kg/injection, schedule: Q01DX009 (ip), vehicle: carboxymethylcellulose (CMC)).
Consider `CC(=O)c1ccc(F)cc1`, for which the T/C was 100 % of control under setting [6], 106 % of control under setting [7], 103 % of control under setting [1] and 106 % of control under setting [2].
On to `O=C(Oc1cccc(OC(=O)c2ccc(Cl)cc2)c1)c1ccc(Cl)cc1`, for which the T/C was 89 % of control under setting [1] and 89 % of control under setting [2].
As for `C[C@]12C=CC(=O)C=C1CC[C@@H]1[C@@H]2C(=O)C[C@@]2(C)[C@H]1CC[C@]2(O)C(=O)CO`, the T/C (dose: 12.5 mg/kg/injection, schedule: Q01DX009 (sc), vehicle: steriod suspending solution) was 102 % of control; the T/C (dose: 25.0 mg/kg/injection, schedule: Q01DX009 (sc), vehicle: steriod suspending solution) is 102 % of control; the T/C (dose: 50.0 mg/kg/injection, schedule: Q01DX009 (sc), vehicle: steriod suspending solution) is 89 % of control and 102 % of control and 110 % of control; the T/C (dose: 50.0 mg/kg/injection, schedule: Q01DX017 (sc), vehicle: steriod suspending solution) is 104 % of control; the T/C (dose: 50.0 mg/kg/injection, schedule: Q## X009 (sc), vehicle: steriod suspending solution) is 102 % of control; the T/C (dose: 100.0 mg/kg/injection, schedule: Q01DX001 (sc), vehicle: steriod suspending solution) is 100 % of control. The T/C reads like this: (dose: 100.0 mg/kg/injection, schedule: Q01DX009 (sc), vehicle: steriod suspending solution) 109 % of control; (dose: 100.0 mg/kg/injection, schedule: Q01DX017 (sc), vehicle: steriod suspending solution) 97 % of control; (dose: 100.0 mg/kg/injection, schedule: Q04DX003 (sc), vehicle: steriod suspending solution) 109 % of control; (dose: 100.0 mg/kg/injection, schedule: Q04DX005 (sc), vehicle: steriod suspending solution) 97 % of control; (dose: 100.0 mg/kg/injection, schedule: Q## X009 (sc), vehicle: steriod suspending solution) 118 % of control; (dose: 200.0 mg/kg/injection, schedule: Q01DX001 (sc), vehicle: steriod suspending solution) 95 % of control. In addition, the T/C reads like this: (dose: 200.0 mg/kg/injection, schedule: Q01DX009 (sc), vehicle: steriod suspending solution) 123 % of control; (dose: 200.0 mg/kg/injection, schedule: Q04DX003 (sc), vehicle: steriod suspending solution) 104 % of control; (dose: 200.0 mg/kg/injection, schedule: Q04DX005 (sc), vehicle: steriod suspending solution) 106 % of control; (dose: 200.0 mg/kg/injection, schedule: Q## X009 (sc), vehicle: steriod suspending solution) 106 % of control; (dose: 400.0 mg/kg/injection, schedule: Q01DX001 (sc), vehicle: steriod suspending solution) 95 % of control; (dose: 400.0 mg/kg/injection, schedule: Q04DX003 (sc), vehicle: steriod suspending solution) 106 % of control. Also, the T/C is, setting by setting: (dose: 400.0 mg/kg/injection, schedule: Q04DX005 (sc), vehicle: steriod suspending solution) 109 % of control; (dose: 400.0 mg/kg/injection, schedule: Q## X009 (sc), vehicle: steriod suspending solution) 106 % of control; (dose: 800.0 mg/kg/injection, schedule: Q01DX001 (sc), vehicle: steriod suspending solution) 93 % of control.
For the compound `CN(C)CC/C=C1/c2ccccc2COc2ccccc21`, the T/C runs as follows: (dose: 3.12 mg/kg/injection, schedule: Q01DX009 (ip), vehicle: saline) 112 % of control; under setting [5], 102 % of control; (dose: 12.5 mg/kg/injection, schedule: Q01DX009 (ip), vehicle: saline) 105 % of control; (dose: 25.0 mg/kg/injection, schedule: Q01DX009 (ip), vehicle: saline) 112 % of control; (dose: 50.0 mg/kg/injection, schedule: Q01DX009 (ip), vehicle: saline) 105 % of control.
On to `Cc1cc2ccccc2c[n+]1C`, for which the T/C (dose: 12.5 mg/kg/injection, schedule: Q04DX003 (ip), vehicle: saline) is 95 % of control; the T/C (dose: 25.0 mg/kg/injection, schedule: Q04DX003 (ip), vehicle: saline) was 95 % of control; the T/C (dose: 50.0 mg/kg/injection, schedule: Q04DX003 (ip), vehicle: saline) was 95 % of control.
Take `CCCCCCCC/C=C\CCCCCCCC(=O)N(C)CC(=O)O`: the T/C (dose: 12.5 mg/kg/injection, schedule: Q01DX009 (ip), vehicle: saline with Tween-80) was 118 % of control; the T/C under setting [3] was 105 % of control; the T/C under setting [4] is 104 % of control.
As for `CCCCCCCCCC(O)CCCC` (stereo not given), the T/C reads like this: under setting [6], 108 % of control; under setting [7], 105 % of control; under setting [1], 86 % of control.
`OC(Cc1nc(-c2ccccc2)c(-c2ccccc2)s1)(C(F)(F)F)C(F)(F)F`: the T/C is 105 % of control (dose: 100.0 mg/kg/injection, schedule: Q04DX003 (ip), vehicle: saline with Tween-80) and 86 % of control (dose: 200.0 mg/kg/injection, schedule: Q04DX003 (ip), vehicle: saline with Tween-80).
For `CNC(=S)N/N=C(\C=N\NC(=S)NC)c1ccc(C)cc1`, the T/C under setting [7] is 101 % of control, the T/C under setting [1] is 90 % of control and the T/C under setting [2] is 89 % of control.
Consider `ClC(Cl)(Cl)C(Nc1ccccc1)Nc1ccccc1`, for which the T/C is 89 % of control (dose: 6.25 mg/kg/injection, schedule: Q01DX009 (ip), vehicle: Klucel (hydroxypropylcellulose) (HPC)) and 86 % of control under setting [6].
Turning to `C=C(Cl)CN(CCCC(=O)O)c1cccc(OC)c1`, the T/C is, setting by setting: (dose: 100.0 mg/kg/injection, schedule: Q04DX003 (ip), vehicle: other) 104 % of control; (dose: 200.0 mg/kg/injection, schedule: Q04DX003 (ip), vehicle: other) 96 % of control; (dose: 400.0 mg/kg/injection, schedule: Q04DX003 (ip), vehicle: other) 94 % of control.
